Measured values taken from US9511073B2, “Aromatic amides and uses thereof” (TAXIS Pharmaceuticals, Inc., priority 2011, dated 2016).
≈ marks a conversion by molar mass, not a printed value.

tested on: Staphylococcus aureus (Isolate ID ATCC 29213); assay: Bacterial assay: MIC by broth microdilution or agar dilution (CLSI), S. aureus ATCC 29213; format: cell-based; conditions: Staphylococcus aureus, ATCC29213, read-out: S. aureus MIC (μg/mL) Activity Range, S. aureus (ATCC29213)
Outline: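 MICs by CLSI broth microdilution or agar dilution against S. aureus ATCC 29213 and its FtsZ-G196A mutant. Values reported as ranges: A ≤0.25 μg/mL, B >0.25–1.0, C >1.0–16, D >16 μg/mL.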

| Structure (SMILES) | MIC [µg/mL] |
| --- | --- |
| NC(=O)c1c(F)ccc(OC(COC(=O)Cn2cccc2)c2nc(-c3ccc(C(F)(F)F)cc3)c(Br)o2)c1F (centres unmarked) [Compound 68, 2-(5-bromo-4-(4-(trifluoromethyl)phenyl)oxazol-2-yl)-2-(3-carbamoyl-2,4-difluorophenoxy)ethyl 2-(1H-pyrrol-1-yl)acetate] | < 0.25 |
| CSc1ccc(OC(CO)c2nc(-c3ccc(C(F)(F)F)cc3)c(SC)o2)c(F)c1C(N)=O (centres unmarked) [Compound 270, 2-fluoro-3-(2-hydroxy-1-(5-(methylthio)-4-(4-(trifluoromethyl)phenyl)oxazol-2-yl)ethoxy)-6-(methylthio)benzamide] | > 16 |
| C=CCCC(Oc1ccc(F)c(C(N)=O)c1F)c1nc(-c2ccc(C(F)(F)F)cc2)c(Br)o1 (centres unmarked) [Compound 124, 3-((1-(5-bromo-4-(4-(trifluoromethyl)phenyl)oxazol-2-yl)pent-4-en-1-yl)oxy)-2,6-difluorobenzamide] | 1 to 16 (≈ 1.88 to 30.1 µM) |
| CS(=O)(=O)NCC(Oc1ccc(F)c(C(N)=O)c1F)c1nc(-c2ccc(C(F)(F)F)cc2)co1 (centres unmarked) [Compound 284, 2,6-difluoro-3-(2-(methylsulfonamido)-1-(4-(4-(trifluoromethyl)phenyl)oxazol-2-yl)ethoxy)benzamide] | > 16 |
| NC(=O)c1c(F)ccc(OC(COC(=O)NCCN2CCCC2)c2nc(-c3ccc(C(F)(F)F)cc3)c(Br)o2)c1F (centres unmarked) [Compound 161, 2-(5-bromo-4-(4-(trifluoromethyl)phenyl)oxazol-2-yl)-2-(3-carbamoyl-2,4-difluorophenoxy)ethyl (2-(pyrrolidin-1-yl)ethyl)carbamate] | 1 to 16 (≈ 1.54 to 24.7 µM) |
| C[C@@H](Oc1cccc(C(N)=O)c1F)c1nc(-c2ccc(C(F)(F)F)cc2)c(Br)o1 [Compound 299] | 1 to 16 (≈ 2.11 to 33.8 µM) |
| Cc1nn(C)cc1CNC(=O)OCC(Oc1ccc(F)c(C(N)=O)c1F)c1nc(-c2ccc(C(F)(F)F)cc2)c(Br)o1 (centres unmarked) [Compound 204, 2-(5-bromo-4-(4-(trifluoromethyl)phenyl)oxazol-2-yl)-2-(3-carbamoyl-2,4-difluorophenoxy)ethyl ((1,3-dimethyl-1H-pyrazol-4-yl)methyl)carbamate] | 0.25 to 1 (≈ 0.38 to 1.52 µM) |
| C=CCc1oc(C(COC(C)=O)Oc2ccc(F)c(C(N)=O)c2F)nc1-c1ccc(C(F)(F)F)cc1 (centres unmarked) [Compound 63, 2-(5-allyl-4-(4-(trifluoromethyl)phenyl)oxazol-2-yl)-2-(3-carbamoyl-2,4-difluorophenoxy)ethyl acetate] | 1 to 16 |
| CC(=O)OCC(Oc1ccc(F)c(C(N)=O)c1F)c1nc(-c2ccc(C(F)(F)F)cc2)oc1Br (centres unmarked) [Compound 137, 2-(5-bromo-2-(4-(trifluoromethyl)phenyl)oxazol-4-yl)-2-(3-carbamoyl-2,4-difluorophenoxy)ethyl acetate] | > 16 |
| CCOC(=O)C(Oc1ccc(F)c(C(N)=O)c1F)c1nc(-c2ccc(Cl)cc2)co1 (centres unmarked) [Compound 6, ethyl 2-(3-carbamoyl-2,4-difluorophenoxy)-2-(4-(4-chlorophenyl)oxazol-2-yl)acetate] | 1 to 16 (≈ 2.29 to 36.6 µM) |
| CC(=O)OCC(Oc1cccc(C(N)=O)c1F)c1nc(-c2ccc(C(F)(F)F)cc2)c(Br)o1 (centres unmarked) [Compound 158, 2-(5-bromo-4-(4-(trifluoromethyl)phenyl)oxazol-2-yl)-2-(3-carbamoyl-2-fluorophenoxy)ethyl acetate] | < 0.25 |
| NC(=O)c1c(F)ccc(OC(c2nc(-c3ccc(C(F)(F)F)cc3)c(Br)o2)C(O)CO)c1F (centres unmarked) [Compound 189, 3-(1-(5-bromo-4-(4-(trifluoromethyl)phenyl)oxazol-2-yl)-2,3-dihydroxypropoxy)-2,6-difluorobenzamide] | 1 to 16 (≈ 1.86 to 29.8 µM) |
| COc1ccc(CNC(=O)OCC(Oc2ccc(F)c(C(N)=O)c2F)c2nc(-c3ccc(C(F)(F)F)cc3)c(Br)o2)cn1 (centres unmarked) [Compound 208, 2-(5-bromo-4-(4-(trifluoromethyl)phenyl)oxazol-2-yl)-2-(3-carbamoyl-2,4-difluorophenoxy)ethyl ((6-methoxypyridin-3-yl)methyl)carbamate] | 0.25 to 1 (≈ 0.372 to 1.49 µM) |
| COc1ncc(-c2csc(C(C)Oc3ccc(F)c(C(N)=O)c3F)n2)s1 (centres unmarked) [Compound 3] | < 0.25 |
| NC(=O)c1c(F)ccc(OC(CO)c2nc(-c3ccccc3F)c(Br)o2)c1F (centres unmarked) [Compound 229, 3-(1-(5-bromo-4-(2-fluorophenyl)oxazol-2-yl)-2-hydroxyethoxy)-2,6-difluorobenzamide] | > 16 |
| CC(=O)OCCCC(Oc1ccc(F)c(C(N)=O)c1F)c1nc(-c2ccc(C(F)(F)F)cc2)c(Br)o1 (centres unmarked) [Compound 89, 4-(5-bromo-4-(4-(trifluoromethyl)phenyl)oxazol-2-yl)-4-(3-carbamoyl-2,4-difluorophenoxy)butyl acetate] | 0.25 to 1 |
| NC(=O)c1c(F)ccc(OC(C(=O)O)c2coc(-c3ccc(C(F)(F)F)cc3)n2)c1F (centres unmarked) [Compound 132, 2-(3-carbamoyl-2,4-difluorophenoxy)-2-(2-(4-(trifluoromethyl)phenyl)oxazol-4-yl)acetic acid] | > 16 |
| NC(=O)c1c(F)ccc(OC(COCC(=O)O)c2nc(-c3ccc(C(F)(F)F)cc3)c(Br)o2)c1F (centres unmarked) [Compound 86, 2-(2-(5-bromo-4-(4-(trifluoromethyl)phenyl)oxazol-2-yl)-2-(3-carbamoyl-2,4-difluorophenoxy)ethoxy)acetic acid] | > 16 |

| Structure (SMILES) | MIC [µg/mL] |
| --- | --- |
| CC(Oc1ccc(F)c(C(N)=O)c1F)c1nc(-c2ccc(C(F)(F)F)cn2)c(Br)o1 (centres unmarked) [Compound 54] | 0.25 to 1 (≈ 0.508 to 2.03 µM) |
| CNc1ccc(-c2nc(C(CO)Oc3ccc(F)c(C(N)=O)c3F)oc2Br)cn1 (centres unmarked) [Compound 224, 3-(1-(5-bromo-4-(6-(methylamino)pyridin-3-yl)oxazol-2-yl)-2-hydroxyethoxy)-2,6-difluorobenzamide] | > 16 |
| Cc1noc(-c2ccc(-c3nc(C(CO)Oc4ccc(F)c(C(N)=O)c4F)oc3Br)cc2)n1 (centres unmarked) [Compound 85, 3-(1-(5-bromo-4-(4-(3-methyl-1,2,4-oxadiazol-5-yl)phenyl)oxazol-2-yl)-2-hydroxyethoxy)-2,6-difluorobenzamide] | 1 to 16 (≈ 1.92 to 30.7 µM) |
| Cc1cc(Cl)ccc1-c1nc(C(CO)Oc2ccc(F)c(C(N)=O)c2F)oc1Br (centres unmarked) [Compound 239, 3-(1-(5-bromo-4-(4-chloro-2-methylphenyl)oxazol-2-yl)-2-hydroxyethoxy)-2,6-difluorobenzamide] | < 0.25 |
| CCCc1oc(C(CCC)Oc2ccc(F)c(C(N)=O)c2F)nc1-c1ccc(Cl)cc1 (centres unmarked) [Compound 30] | 1 to 16 (≈ 2.23 to 35.6 µM) |
| Cc1nnc(C(Oc2ccc(F)c(C(N)=O)c2F)c2nc(-c3ccc(C(F)(F)F)cc3)co2)o1 (centres unmarked) [Compound 218, 2,6-difluoro-3-((5-methyl-1,3,4-oxadiazol-2-yl)(4-(4-(trifluoromethyl)phenyl)oxazol-2-yl)methoxy)benzamide] | > 16 |
| Cc1ccc(-c2nc(C(CO)Oc3ccc(F)c(C(N)=O)c3F)oc2Br)cn1 (centres unmarked) [Compound 231, 3-(1-(5-bromo-4-(6-methylpyridin-3-yl)oxazol-2-yl)-2-hydroxyethoxy)-2,6-difluorobenzamide] | > 16 |
| Cc1nc(-c2ccc(-c3nc(C(CO)Oc4ccc(F)c(C(N)=O)c4F)oc3Br)cc2)no1 (centres unmarked) [Compound 83, 3-(1-(5-bromo-4-(4-(5-methyl-1,2,4-oxadiazol-3-yl)phenyl)oxazol-2-yl)-2-hydroxyethoxy)-2,6-difluorobenzamide] | 1 to 16 (≈ 1.92 to 30.7 µM) |
| CN(C)CCNC(=O)OCC(Oc1ccc(F)c(C(N)=O)c1F)c1nc(-c2ccc(C(F)(F)F)cc2)c(Br)o1 (centres unmarked) [Compound 134, 2-(5-bromo-4-(4-(trifluoromethyl)phenyl)oxazol-2-yl)-2-(3-carbamoyl-2,4-difluorophenoxy)ethyl (2-(dimethylamino)ethyl)carbamate] | 1 to 16 (≈ 1.61 to 25.8 µM) |
| NC(=O)c1c(F)ccc(O[C@H](CO)c2nc(-c3ccc(Cl)s3)c(Br)o2)c1F [Compound 250B, (R)-3-(1-(5-bromo-4-(5-chlorothiophen-2-yl)oxazol-2-yl)-2-hydroxyethoxy)-2,6-difluorobenzamide] | < 0.25 |
| CCOC(=O)COCC(Oc1ccc(F)c(C(N)=O)c1F)c1nc(-c2ccc(C(F)(F)F)cc2)c(Br)o1 (centres unmarked) [Compound 84, ethyl 2-(2-(5-bromo-4-(4-(trifluoromethyl)phenyl)oxazol-2-yl)-2-(3-carbamoyl-2,4-difluorophenoxy)ethoxy)acetate] | 0.25 to 1 (≈ 0.421 to 1.69 µM) |
| NC(=O)c1c(F)ccc(OC(CNC(=O)CCC(=O)O)c2nc(-c3ccc(C(F)(F)F)cc3)c(Br)o2)c1F (centres unmarked) [Compound 302, 4-((2-(5-bromo-4-(4-(trifluoromethyl)phenyl)oxazol-2-yl)-2-(3-carbamoyl-2,4-difluorophenoxy)ethyl)amino)-4-oxobutanoic acid] | 1 to 16 (≈ 1.65 to 26.4 µM) |
| Cc1noc(C(Oc2ccc(F)c(C(N)=O)c2F)c2nc(-c3ccc(C(F)(F)F)cc3)co2)n1 (centres unmarked) [Compound 188, 2,6-difluoro-3-((3-methyl-1,2,4-oxadiazol-5-yl)(4-(4-(trifluoromethyl)phenyl)oxazol-2-yl)methoxy)benzamide] | > 16 |
| NC(=O)c1c(F)ccc(O[C@H](CO)c2nc3cc(Cl)cnc3s2)c1F [Compound 266B, (R)-3-(1-(6-chlorothiazolo[5,4-b]pyridin-2-yl)-2-hydroxyethoxy)-2,6-difluorobenzamide] | 1 to 16 (≈ 2.59 to 41.5 µM) |
| N#Cc1ccc(-c2nc(C(CO)Oc3ccc(F)c(C(N)=O)c3F)oc2Br)s1 (centres unmarked) [Compound 236, 3-(1-(5-bromo-4-(5-cyanothiophen-2-yl)oxazol-2-yl)-2-hydroxyethoxy)-2,6-difluorobenzamide] | 0.25 to 1 (≈ 0.532 to 2.13 µM) |
| N#Cc1ccc(-c2nc(C(CO)Oc3ccc(F)c(C(N)=O)c3F)oc2Br)cc1 (centres unmarked) [Compound 80, 3-(1-(5-bromo-4-(4-cyanophenyl)oxazol-2-yl)-2-hydroxyethoxy)-2,6-difluorobenzamide] | 1 to 16 (≈ 2.15 to 34.5 µM) |
| NC(=O)c1c(F)ccc(OC(COC(=O)CCN2C(=O)c3ccccc3C2=O)c2nc(-c3ccc(C(F)(F)F)cc3)c(Br)o2)c1F (centres unmarked) [Compound 64, 2-(5-bromo-4-(4-(trifluoromethyl)phenyl)oxazol-2-yl)-2-(3-carbamoyl-2,4-difluorophenoxy)ethyl 3-(1,3-dioxoisoindolin-2-yl)propanoate] | < 0.25 |
